The values that follow come from article PMC2376925 (British Journal of Cancer, 2003).

The nature of series [1]: Plasma pharmacokinetics of irinotecan, SN-38, SN-38G and APC (HPLC, noncompartmental). To be noted: for change of AUC when irinotecan administered immediately after epirubicin: Course 1 vs Course 2, paired t-test; for AUC in Course 1 compared to Course 2, higher by: second patient with elevated bilirubin (1.5 times ULN), irinotecan 80 mg m^−2; for SN-38G AUCt: mean ±s.d., dose standardised to 100 mg irinotecan. As for the experimental part: (§1) Atropine was administered if diarrhoea, abdominal cramping or other symptoms of early cholinergic syndrome occurred within 1 h of receiving irinotecan. […] Dexamethasone and a 5-HT3 antagonist were administered to all patients as standard premedications unless contraindicated.
(§2) Samples were centrifuged immediately at room temperature, and plasma was separated and stored in aliquots at −20°C until analysis.
Irinotecan, SN-38 and APC concentrations were determined using a high-performance liquid chromatography assay. […] The fluorescence detector was operated at an excitation wavelength of 372 nm, irinotecan and APC were monitored at an emission wavelength of 425 nm, while SN-38 and the internal standard were monitored at 535 nm. SN-38 glucuronide (SN-38G) concentrations were estimated as increases in SN-38 concentrations after incubation of plasma samples with β-glucuronidase.
(§3) Pharmacokinetic parameters were determined by noncompartmental methods using WinNonlin (Version 3.0, Pharsight Corp., Mountain View, CA, USA). […] Pharmacokinetic parameters were compared using the paired t-test. A probability of P<0.05 was considered significant. The program S-PLUS for Windows (Version 6) (Insightful Corp., Seattle, WA, USA) was used for statistical analysis.

For series [2], the system named is patients with advanced solid tumours. As to conditions: triple combination, Day 1 every 3 weeks; normal total serum bilirubin. The procedure:
as §1

On the set-up of series [3]: method as in Vanhoefer et al, 2001. As to conditions: single-agent, weekly or every-3-week regimen; ref Vanhoefer et al, 2001; cited from earlier work.
For series [4] the following is noted: cited from earlier work; for AUC when given together with paclitaxel: attributed to vehicle Cremophor EL, ref Yamamoto et al, 1999; for AUC when given together with carboplatin: ref Okamoto et al, 1998.
Series [5] can be described thus: clinical. To be noted: for half-life: t1/2 (elimination half-life); for half-life / clearance: mean ±s.d.; for clearance: plasma, intravenous, CL (total body clearance). The procedure: as §1, §2
Samples were added to C8 solid-phase extraction tubes and extracts were dried on an evaporator. […] The fluorescence detector was set at excitation 480 nm and emission 560 nm.
as §3

[6] abbreviates: human, plasma, intravenous, 100 mg.

Counter-ions that a name gives are not always drawn.

The term AUC(0-inf) denotes total exposure, with the tail of the curve extrapolated. A high value points to high exposure. The term AUC(0-t) denotes the area under the concentration-time curve up to a stated or last time point. High values mean high exposure, low ones low exposure. As usually defined, the half-life is how long it takes for the measured level to halve. Read a low half-life as rapid decline. By clearance is commonly meant the volume of plasma or blood freed of the substance per unit of time. Lower therefore signals inefficient removal.

Regarding `CCc1c2c(nc3ccc(OC(=O)N4CCC(N5CCCCC5)CC4)cc13)-c1cc3c(c(=O)n1C2)COC(=O)[C@]3(O)CC` [irinotecan, Irinotecan hydrochloride], in series [1] (setting [6]), the AUC(0-inf) came to 2960 ± 1020 ng·h/mL and the AUC(0-t) came to 2870 ± 916 ng·h/mL. In addition, the “recommended phase II dose (MTD)” value in series [2] was determined as 110 mg m^−2. In addition, the “frequency of grade 3/4 late diarrhoea” value in series [3] is over 20%. Besides, in series [4], the “AUC when given together with paclitaxel” value is reported as “increased”; the “share of irinotecan and its metabolites excreted via the biliary tract” value is “Over 60%”; the “AUC when given together with carboplatin” value is on record as “lower”. Moreover, the “doses up to which pharmacokinetics is linear” value in series [4] (ref Mathijssen et al, 2001) was “up to 180 mg m^−2”. Further, the “share of the administered irinotecan dose converted to SN-38” value in series [4] (ref Slatter et al, 2000) was “less than 10%”.

As for `CCc1c2c(nc3ccc(O)cc13)-c1cc3c(c(=O)n1C2)COC(=O)[C@]3(O)CC` [SN-38], the “SN-38 AUCt” value in series [1] (human, in vivo) worked out at 102 ± 54 ng·h/mL; in series [1] (human, in vivo, 100 mg) it was 78 ± 36 ng·h/mL. In addition, the “AUC when given together with paclitaxel” value in series [4] was “increased”. The “AUC when irinotecan is coadministered with doxorubicin” value in series [4] (ref Dunphy et al, 2001) is reported as “not increased”. For the same compound, the “AUC when given together with carboplatin” value in series [4] is “lower”.

As for `COc1cccc2c1C(=O)c1c(O)c3c(c(O)c1C2=O)C[C@@](O)(C(=O)CO)C[C@@H]3O[C@H]1C[C@H](N)[C@@H](O)[C@H](C)O1` [epirubicin], in series [5] (human, in vivo), the “Vd (apparent volume of distribution)” value is 2563 ± 1122 L. The AUC(0-inf) in series [5] (human, in vivo, 100 mg) is 910 ± 368 ng·h/mL. This compound also had an area under the curve AUC(0-t) in series [5] (human, in vivo, 100 mg) of 723 ± 296 ng·h/mL. Also, the Vd in series [5] (human, in vivo, Vd (apparent volume of distribution)) came to 3480 ± 1940 L. Also, the half-life in series [5] (human, in vivo, Irinotecan → epirubicin (Course 2)) is 16 ± 7.8 h; in series [5] (human, in vivo, Irinotecan+epirubicin (Course 1)) it was 23.1 ± 10.8 h. Also, the clearance is 2080 mL/min in series [5] (human, Irinotecan → epirubicin (Course 2)) and 1830 mL/min in series [5] (human, Irinotecan+epirubicin (Course 1)). Further, the “effect of sequence of drug administration on pharmacokinetic parameters” value in series [5] (in vivo) is on record as “not affected by the sequence of drug administration”.

For `CCc1c2c(nc3ccc(OC(=O)N4CCC(NCCCCC(=O)O)CC4)cc13)-c1cc3c(c(=O)n1C2)COC(=O)[C@]3(O)CC` [APC], in series [1], the “change of AUC when irinotecan administered immediately after epirubicin” value is “increased significantly” and the “AUC in Course 1 compared to Course 2, higher by” value was over 60%. Also, the “APC AUCt” value in series [1] (human, in vivo, 100 mg) was found to be 725 ± 460 ng·h/mL.

For `COc1cccc2c1C(=O)c1c(O)c3c(c(O)c1C2=O)C[C@@](O)([C@@H](O)CO)C[C@@H]3O[C@H]1C[C@H](N)[C@@H](O)[C@H](C)O1` [Epi-ol, epirubicinol], the “Epi-ol AUCt” value in series [5] (human, in vivo, 100 mg) was determined as 788 ± 482 ng·h/mL.

With `CCc1c2c(nc3ccc(O[C@@H]4O[C@H](C(=O)O)[C@@H](O)[C@H](O)[C@H]4O)cc13)-c1cc3c(c(=O)n1C2)COC(=O)[C@]3(O)CC` [SN-38G, SN-38 glucuronide], in series [1], the “change of AUC when irinotecan administered immediately after epirubicin” value was “increased significantly” and the “AUC in Course 1 compared to Course 2, higher by” value was over 60%. In addition, the “SN-38G AUCt” value in series [1] (Irinotecan → epirubicin (Course 2)) is 378 ± 223 ng·h/mL. For the same compound, the “SN-38G AUCt” value in series [1] (Irinotecan+epirubicin (Course 1)) was 558 ± 480 ng·h/mL.
